Source: US11573241B2, “Total cellular iron as a marker of cancer stem cells and uses thereof” (Institut National de la Sante et de la Recherche Medicale …, priority 2016, dated 2023)

Test system: MCF-7 tumors
Experiment: Perl's reaction, iron(III) in MCF-7 xenograft tumor tissue
Format: in vivo, mice
Details: 3 mg/kg body weight/day, intraperitoneal
Protocol: Xenograft tumor formation experiments. MCF-7 cell cultures were collected, enzymatically dissociated, washed with PBS, and re-suspended in a PBS/Matrigel mixture (1:1 v/v). The mixture (0.1 mL) was then implanted in the mammary fat pad of 5-week-old female AthymicNude-Fox1nu mice bilaterally (Harlan, France). Mice were maintained in individually-ventilated cages (Tecniplast, France) under constant temperature and humidity. All experiments were performed under laminar flow (Tecniplast France). Mice received estradiol supplementation (0.4 mg/kg) the same day and 7 days from cell injection, and were observed and palpated for tumor appearance. Mice were treated with AM5 (3 mg/kg body weight/day) by means of intraperitoneal injections every 5 opened days of the week. Tumor growth was measured weekly using calipers. Tumor volume was determined using the standard formula: L×W^2×0.52, where L and W are the longest and shortest diameters, respectively. All animal studies were approved by the Direction des services Vétérinaires, Prefecture de Police, Paris, France (authorization number A75-14-08) and the ethical committee (number 34) of Paris Descartes University. No randomization was used and experimenters were blinded to drug treatments and tissue analyses.
Perl's reaction. Tumors from mice were removed at time of sacrifice. Tumors were fixed with 4% PFA and embedded in paraffin. […]

## C#CCN[C@@H]1C=C[C@]2(O[C@H]([C@@H](CC)C(=O)[C@@H](C)[C@@H](O)[C@H](C)C3O[C@@H](C(CC)C(=O)O)CC[C@@H]3C)[C@@H](C)C[C@H]2C)O[C@@]12CC[C@@](C)([C@H]1CC[C@](O)(CC)[C@H](C)O1)O2 (stereo partly shown) [AM5, Sal-Propargylamine]
  iron(III) in tumor tissue: accumulation of iron(III)
